# Experimental data from patent US20240382475A1, “Quinazoline Derivative, Or Preparation Method Therefor And Use Thereof” (Zhejiang Hisun Pharmaceutical Co., Ltd., priority 2021, published 2024).
# What was measured:
# [1] = tested on: human lung cancer NCI-H2122 subcutaneous xenotransplanted tumor; assay: Pharmacodynamic evaluation in nude mouse subcutaneous xenotransplanted model of human lung cancer NCI-H2122; format: in vivo, Balb/c nude mouse; conditions: 30 mg/kg each agent
# Procedure: The anti-tumor effect and safety of compound 11 of the present invention were evaluated in a Balb/c nude mouse animal model of subcutaneous xenotransplanted NCI-H2122.
# BALB/c; nude mice, female, 6-7 weeks old (the age of mice when tumor cells were inoculated), purchased from Jiangsu Jicui Yaokang Biotechnology Co., Ltd.
# The solvent control group was given DMSO:castor oil:5% glucose injection=20:10:70 (v/v/v).
# (§1) AMG-510: an appropriate amount of AMG-510 was weighed, and an appropriate amount of DMSO:castor oil:5% glucose injection=20:10:70 (v/v/v) was added. After the above mixture was fully dissolved, an appropriate amount of 1 M hydrochloric acid was added, vortexed and mixed to prepare a solution with a concentration of 3 mg/mL.
# as §1, with “Compound 11:” for “AMG-510:”, “compound 11” for “AMG-510”
# H2122 cells were cultured in 1640 culture medium containing 10% fetal bovine serum and 1% penicillin-streptomycin-amphotericin B solution. H2122 cells in the exponential growth phase were collected and resuspended in matrigel solution (matrigel:PBS=1:1 (V/V)) to a suitable concentration for subcutaneous tumor inoculation in nude mice.
# Female Balb/c nude mice were subcutaneously inoculated with about 3.0×10^6H2122 cells on the right sides of their backs. When the average volume of the tumors reaches about 150-200 mm^3, the mice were randomly divided according to the tumor sizes with 6 mice in each group.
# • Group 1 (G1), solvent control group; • Group 2 (G2), AMG-510 was given by intragastric administration at a dose of 30 mg/kg; • Group 3 (G3), Example 11 was given by intragastric administration at a dose of 30 mg/kg; • Group 4 (G4), AMG-510 and Example 11 were administered in combination, and the dosages were respectively: AMG-510, 30 mg/kg (QD); Example 11, 30 mg/kg (QD).
# After tumor inoculation, routine monitoring included the effects of tumor growth and treatment on the normal behaviors of the animals, specifically the mobility, feeding and drinking, weight gain or loss, eyes, coat and other abnormalities of the experimental animals.
# Calculation formulae for a relative tumor volume (RTV), a relative tumor proliferation rate (T/C) and a tumor inhibition percentage (IR) were as follows: • (1) TV (tumor volume)=½×a×b^2, wherein a and b represent the length and width of the tumor respectively; • (2) RTV (relative tumor volume)=Vt/Vo, wherein Vo is the tumor volume measured at the time of administration when grouping (i.e. do), and Vt is the tumor volume at each measurement; • (3) relative tumor proliferation rate T/C (%)=TRTV/CRTV×100%, wherein TRTV is the RTV of the treatment group and CRTV is the RTV of the control group; • (4) Tumor growth inhibition rate TGI(%)=(1−T/C)×100%; wherein, T and C are the relative tumor volumes of the treatment group and the control group at a specific time point. • (5) IR (%)=(1−TWt/TWc)×100%, wherein, TWt is the tumor weight of the treatment group and TWc is the tumor weight of the control group. The anti-tumor evaluation criteria are (cytotoxic drugs): T/C(%)>40% is invalid; T/C(%)≤40%, and after statistical processing, P<0.05 is effective.
# OCI-AML5 cells = assay: Inhibition of OCI-AML5 cell proliferation (CellTiter-Glo); format: cell-based; conditions: Homo sapiens, OCI-AML-5; OCI-AML5 cells (SOS1 N233Y mutation), 120 hours
# Procedure: The following method was used to determine the influence of the compounds of the present invention on OCI-AML5 cells proliferation. OCI-AML5 cells (containing SOS1 N233Y mutation) were purchased from Nanjing Kebai Biotechnology Co., Ltd. and cultured in MEMα medium containing 10% fetal bovine serum, 100 U penicillin, and 100 μg/mL streptomycin. The activities of the cells were determined by CellTiter-Glo® Luminescent Cell Viability Assay Kit (Promega, Art. No. G7573).
# The experimental method was operated according to the steps in the kit instruction, which were briefly described as follows: the test compounds were first dissolved in DMSO to prepare storage solutions of 10 mM, and then diluted with culture mediums to prepare test samples. The final concentrations of the compounds were 10000 nM to 0.15 nM. Cells in logarithmic phase were inoculated in a 96-well cell culture plate with 1,000 cells per well, after cultured overnight in 5% CO2 incubator at 37° C., the test compounds were added to the incubator to continue the culture for 120 hours. After the culture was completed, 50 μL of CellTiter-Glo detection solution was added to each well, shaken for 5 minutes and then stood for 10 minutes. Then, a Luminescence mode was used to read the luminescence values of each well of the samples on a microplate reader.
# KRAS-G12C/SOS1 = target: T1, KRAS-G12C/SOS1 (Homo sapiens, UniProt Q07889); assay: Blocking the binding of KRAS G12C protein to SOS1 (Cisbio KRAS-G12C/SOS1 binding assay kit, TR-FRET); conditions: Tag1-SOS1 and Tag2-KRAS-G12C, TR-FRET 665/620; read-out: IC50 (nM) Inhibition of KRAS-G12C/SOS1 binding
# T1 construct: purchased Cisbio 63ADK000CB16PEG
# T1 sequence (Q07889 1-1333): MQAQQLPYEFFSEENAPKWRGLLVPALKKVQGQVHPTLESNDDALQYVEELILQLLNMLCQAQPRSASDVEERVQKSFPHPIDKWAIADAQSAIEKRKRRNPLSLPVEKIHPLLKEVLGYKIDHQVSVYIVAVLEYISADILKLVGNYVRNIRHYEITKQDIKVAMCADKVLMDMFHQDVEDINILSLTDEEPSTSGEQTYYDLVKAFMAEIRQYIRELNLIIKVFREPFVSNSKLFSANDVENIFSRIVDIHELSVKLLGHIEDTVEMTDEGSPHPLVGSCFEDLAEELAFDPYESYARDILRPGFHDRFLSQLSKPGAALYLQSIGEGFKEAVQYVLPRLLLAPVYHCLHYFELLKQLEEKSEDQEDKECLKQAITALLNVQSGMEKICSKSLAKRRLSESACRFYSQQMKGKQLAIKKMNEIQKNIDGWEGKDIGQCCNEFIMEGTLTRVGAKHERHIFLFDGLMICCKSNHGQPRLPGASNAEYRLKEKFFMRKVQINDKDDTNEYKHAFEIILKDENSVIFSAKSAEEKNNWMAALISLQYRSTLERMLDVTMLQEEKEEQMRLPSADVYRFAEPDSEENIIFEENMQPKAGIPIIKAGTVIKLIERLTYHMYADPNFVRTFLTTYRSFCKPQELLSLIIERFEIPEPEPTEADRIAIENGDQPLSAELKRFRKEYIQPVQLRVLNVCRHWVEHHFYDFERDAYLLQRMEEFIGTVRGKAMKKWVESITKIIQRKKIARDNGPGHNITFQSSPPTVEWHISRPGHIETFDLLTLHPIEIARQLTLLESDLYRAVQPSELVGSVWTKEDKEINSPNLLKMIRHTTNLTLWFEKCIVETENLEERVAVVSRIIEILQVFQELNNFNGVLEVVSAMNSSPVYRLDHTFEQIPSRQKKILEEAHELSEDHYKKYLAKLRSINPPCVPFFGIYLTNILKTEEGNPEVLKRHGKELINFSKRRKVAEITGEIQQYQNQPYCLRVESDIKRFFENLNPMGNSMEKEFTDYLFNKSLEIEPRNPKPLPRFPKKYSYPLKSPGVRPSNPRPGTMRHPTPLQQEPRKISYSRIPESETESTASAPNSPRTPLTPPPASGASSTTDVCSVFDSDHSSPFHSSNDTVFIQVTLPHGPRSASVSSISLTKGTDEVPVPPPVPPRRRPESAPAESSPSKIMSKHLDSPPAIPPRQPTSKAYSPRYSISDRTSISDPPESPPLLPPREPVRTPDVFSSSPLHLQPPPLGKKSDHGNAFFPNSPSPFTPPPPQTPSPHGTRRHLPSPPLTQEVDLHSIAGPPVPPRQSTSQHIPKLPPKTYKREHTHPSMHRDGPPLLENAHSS
# Text: The following method was used to determine the abilities of compounds of the invention to block the interaction of SOS1 with the KRAS G12C protein in vitro. KRAS-G12C/SOS1 BINDING ASSAY KITS (Art. No. 63ADK000CB16PEG) from Cisbio was used in this method. Please refer to the kit instruction for detailed experimental operations.
# The experimental process can be briefly described as follows: diluent buffer (Art. No. 62DLBDDF) was used to prepare a working solution with a concentration of 5× for Tag1-SOS1 and Tag2-KRAS-G12C protein. The test compounds were dissolved in DMSO to prepare storage solutions of 10 mM, and then the solutions were diluted with dilution buffer for later use. First, 2 μL of the test compound (the final concentrations of the reaction system were 10000 nM-0.1 nM) was added to the well, then 4 μL of Tag1-SOS1 5× working solution and 4 μL of Tag2-KRAS-G12C 5× working solution were added, and the above mixture was centrifuged, mixed, and stood for 15 minutes; then 10 μL of premixed anti-Tag1-Tb^3+ and anti-Tag2-XL665 were added, and the mixture was incubated at room temperature for 2 hours; finally, a microplate reader was used in […] mode to measure the fluorescence intensity of each well emitting wavelengths of 620 nm and […] under the excitation wavelength of 304 nm, and the fluorescence intensity ratio 665/620 in each well was calculated. Compared with the fluorescence intensity ratio of a control group (0.1% DMSO), the percentage inhibition rates of the test compounds at each concentration were calculated, and the IC50 values of the compounds were obtained by performing nonlinear regression analysis with logarithmic values of the compound concentration-inhibition rate by GraphPad Prism 5 software, which was shown in Table 1.
structure (smiles),measurement,setting,value
"C=CC(=O)N1CCN(c2nc(=O)n(-c3c(C)ccnc3C(C)C)c3nc(-c4c(O)cccc4F)c(F)cc23)[C@@H](C)C1 [AMG-510, reference compound]",Relative tumor volume (x ± S),[1]; 16 days after administration,2.90 ± 0.26
same,TGI %,[1]; 16 days after administration,43.0%
same,Tumor volume (x ± S),"[1]; Day 0 after administration, intragastric",199 ± 21 mm^3
same,Tumor volume (x ± S),"[1]; Day 3 after administration, intragastric",263 ± 17 mm^3
same,Tumor volume (x ± S),"[1]; Day 7 after administration, intragastric",343 ± 29 mm^3
same,Tumor volume (x ± S),"[1]; Day 10 after administration, intragastric",406 ± 38 mm^3
same,Tumor volume (x ± S),"[1]; Day 14 after administration, intragastric",538 ± 47 mm^3
same,Tumor volume (x ± S),"[1]; Day 16 after administration, intragastric",563 ± 58 mm^3
same,Tumor volume (x ± S),"[1]; Table 11, 16 days after administration, in mm³",563 ± 58
same,Inhibition rate of tumor weight (%),[1]; end of the experiment,44.3%
same,Tumor weight (g) (x ± S),[1]; end of the experiment,0.4203 ± 0.0447 g
"COc1cc2nc(C)nc(N[C@H](C)c3cccc(C#N)c3C)c2cc1N1CCN2C(=O)CCC2C1 (stereo partly drawn) [Compound 3, 3-((1R)-1-((7-methoxy-2-methyl-6-(6-oxohexahydropyrrolo[1,2-a]pyrazin-2(1H)-yl)quinazolin-4-yl)amino)ethyl)-2-methylbenzonitrile]",IC50,OCI-AML5 cells,42.9 nM
"COc1cc2nc(C)nc(N[C@H](C)c3cccc(C#N)c3C)c2cc1N1CCC(N2CCOCC2)CC1 [Compound 6, (R)-3-(1-((7-methoxy-2-methyl-6-(4-morpholinopiperidin-1-yl)quinazolin-4-yl)amino)ethyl)-2-methylbenzonitrile]",IC50,OCI-AML5 cells,5.5 nM
same,IC50,KRAS-G12C/SOS1,1.1 nM
"COc1cc2nc(C)nc(N[C@H](C)c3cccc(C#N)c3C)c2cc1N1CC2COCC2C1 (stereo partly drawn) [Compound 9, 3-((1R)-1-((7-methoxy-2-methyl-6-(tetrahydro-1H-furo[3,4-c]pyrrol-5(3H)-yl)quinazolin-4-yl)amino)ethyl)-2-methylbenzonitrile]",IC50,OCI-AML5 cells,25 nM
same,IC50,KRAS-G12C/SOS1,53.7 nM
"COc1cc2nc(C)nc(N[C@H](C)c3cccc(C#N)c3C)c2cc1N1CCN(C)CC1 [Compound 10, (R)-3-(1-((7-methoxy-2-methyl-6-(4-methylpiperazin-1-yl)quinazolin-4-yl)amino)ethyl)-2-methylbenzonitrile]",IC50,OCI-AML5 cells,16.8 nM
same,IC50,KRAS-G12C/SOS1,36.7 nM
"COc1cc2nc(C)nc(N[C@H](C)c3cccc(C#N)c3C)c2cc1N1CCC2(CC1)CN(S(C)(=O)=O)C2 [Compound 16, (R)-3-(1-((7-methoxy-2-methyl-6-(2-(methylsulfonyl)-2,7-diazaspiro[3.5]nonan-7-yl)quinazolin-4-yl)amino)ethyl)-2-methylbenzonitrile]",IC50,KRAS-G12C/SOS1,54.3 nM
"COc1cc2nc(C)nc(N[C@H](C)c3cccc(C#N)c3C)c2cc1N1CCC(N2CCCC2=O)CC1 [Compound 21, (R)-3-(1-((7-methoxy-2-methyl-6-(4-(2-oxopyrrolidin-1-yl)piperidin-1-yl)quinazolin-4-yl)amino)ethyl)-2-methylbenzonitrile]",IC50,KRAS-G12C/SOS1,63.2 nM
"COc1cc2nc(C)nc(N[C@H](C)c3cccc(C#N)c3C)c2cc1N1CCC(N2CCN(S(C)(=O)=O)CC2)CC1 [Compound 23, (R)-3-(1-((7-methoxy-2-methyl-6-(4-(4-(methylsulfonyl)piperazin-1-yl)piperidin-1-yl)quinazolin-4-yl)amino)ethyl)-2-methylbenzonitrile]",IC50,OCI-AML5 cells,41.1 nM
